Test results taken from patent US11026937B2, “Heteroaryl inhibitors of PAD4” (PADLOCK THERAPEUTICS, INC., priority 2016, dated 2021).
Like-named read-outs stand apart in the source and are kept apart here.

Target: hPAD4 enzyme (Homo sapiens (Human), UniProt Q9UM07)
Test: PAD4 assay (hPAD4-RFMS, RapidFire mass spectrometry)
Type: biochemical
Conditions: 100 nM hPAD4, 50 μM substrate peptide, 1 mM CaCl2, 65 mins at 37° C.
Method: Compounds of the present invention were assayed as inhibitors of PAD4 using the assay protocol described below.
Compounds were solubilized in 100% DMSO to achieve 100 mM final compound concentration. Compound stock solutions were stored at RT. A series of dilutions were prepared in DMSO and mixed 8 times with 20 μL mixing volume. Final assay conditions were as follows:
Assay buffer (as aforementioned): 100 mM Tris-HCl (pH 7.6), 2 mM DTT, 1 mM CaCl2
Total incubation time: 65 mins at 37° C.
Stop solution: 40 μl 5% TCA in ACN
0.25 μL of compound solution was added to 10 μL of 200 nM PAD4 in assay buffer (100 mM Tris-HCl pH 7.6, 2 mM DTT). After 5 mins, 10 μL of 100 μM of substrate in buffer (100 mM Tris-HCl pH 7.6, 2 mM DTT, 2 mM CaCl2) was added and the reaction incubated for 60 mins at 37° C. The enzymatic reaction was quenched by addition of 40 μl of 5% TCA in ACN (1.7% TCA final concentration) stop solution.
The compound numbers correspond to the compound numbers in Tables 1 and 2. […] The term pIC50=−log(IC50). […] “NA” stands for “not assayed.”

[1] = read-out: hPAD4-RFMS: IC50 (μM) (Average)
[2] = read-out: hPAD4-RFMS: pIC50 (Average) (converted)

hPAD4 enzyme, sequence (Q9UM07 whole entry): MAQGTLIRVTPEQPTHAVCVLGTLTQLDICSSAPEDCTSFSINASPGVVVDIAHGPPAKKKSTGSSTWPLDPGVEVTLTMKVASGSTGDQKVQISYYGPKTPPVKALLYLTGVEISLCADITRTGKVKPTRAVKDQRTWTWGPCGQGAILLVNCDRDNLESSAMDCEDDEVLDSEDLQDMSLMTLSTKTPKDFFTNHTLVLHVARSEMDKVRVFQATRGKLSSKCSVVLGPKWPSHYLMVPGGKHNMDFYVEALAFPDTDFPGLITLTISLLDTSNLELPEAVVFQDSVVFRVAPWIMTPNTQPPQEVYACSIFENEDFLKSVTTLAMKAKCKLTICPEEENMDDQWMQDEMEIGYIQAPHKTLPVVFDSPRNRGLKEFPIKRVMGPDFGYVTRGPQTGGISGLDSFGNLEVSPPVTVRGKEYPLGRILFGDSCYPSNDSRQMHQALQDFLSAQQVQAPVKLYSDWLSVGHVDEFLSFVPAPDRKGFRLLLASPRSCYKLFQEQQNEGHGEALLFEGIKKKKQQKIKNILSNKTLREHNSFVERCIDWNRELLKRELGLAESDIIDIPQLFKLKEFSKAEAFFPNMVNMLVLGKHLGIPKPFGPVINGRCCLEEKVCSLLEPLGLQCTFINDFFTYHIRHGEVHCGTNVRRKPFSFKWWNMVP

Compound	IC50 [1] [µM]	IC50 [2] [µM]	hPAD4-RFMS: pIC50 (Average)
O=C(/C=C/c1cncnc1)c1c(-c2cccnc2)c2ccccc2[nH]c1=O [Compound I-95]	> 100	100 to 100000	–
Cn1c(/C=C/C(=O)c2c(-c3ccccc3)c3ccccc3n(C)c2=O)nc2ccccc21 [Compound I-72]	> 100	10 to 100	–
O=C(/C=C/c1cccnc1)c1c(-c2ccccn2)c2ccccc2[nH]c1=O [Compound I-124]	> 100	100 to 100000	–
O=C(/C=C/c1ccccn1)c1c(-c2ccc(F)cc2)c2ccccc2[nH]c1=O [Compound I-108]	> 100	100 to 100000	–
COc1ccc(/C=C/C(=O)c2ccc[nH]c2=O)cc1 [Compound I-151]	> 100	100 to 100000	–
O=C(/C=C/c1cncnc1)c1c(-c2ccccc2)c2cnccc2[nH]c1=O [Compound I-90, 4-phenyl-3-[(2E)-3-(pyrimidin-5-yl)prop-2-enoyl]-1,2-dihydro-1,6-naphthyridin-2-one]	> 100	100 to 100000	–

Now from value to molecule:

IC50 [1] [µM]	IC50 [2] [µM]	hPAD4-RFMS: pIC50 (Average)	Compound
> 100	100 to 100000	–	C#CCOCCOCCOc1ccc(/C=C/C(=O)c2c(-c3ccccc3)c3ccccc3[nH]c2=O)cc1 [Compound I-109, 4-phenyl-3-[(2E)-3-(4-{2-[2-(prop-2-yn-1-yloxy)ethoxy]ethoxy}phenyl)prop-2-enoyl]-1,2-dihydroquinolin-2-one]
20 to 100	–	F (pIC50 of 4-5)	O=C(/C=C/c1nc2ccccc2[nH]1)c1c(-c2ccccc2)c2ccccc2[nH]c1=O [Compound I-103]
3 to 20	< 10	–	COc1ccc(/C=C/C(=O)c2c(-c3ccccc3)c3ccccc3[nH]c2=O)cc1 [Compound I-139]
